In US6527690B2, “Purification of phenyl ester salts” (priority 2000, dated 2003):

Columns and labels:
[1] = Measurement of perhydrolysis rate of formulated beads; settings: 5 minutes, 10° C.
Description: To determine its perhydrolysis rate, the phenyl ester salt was formulated into beads. The beads were typically formulated using a powder or solid phenyl ester salt with a surfactant and a chelating agent. A typical formulation is shown below: […]
The dry materials were weighed, charged into a one-gallon sigma blade mixer and dry mixed for 1 minute. While mixing, water was added and mixing was continued for about 17.5 minutes. The wet mix bulk density was determined by measuring weight/volume. The material was extruded using the Luwa DG-L I at 90 rpm (using a 0.7 mm/I mm, 19.7% open area die). The extrusion was rounded for 1 minute at 1,350 rpm in the Luwa QJ-230 Marumerizer, followed by drying for 20 minutes at 115° C. in a Luwa MDB-400 fluid bed.
Perhydrolysis rate is the percentage of a phenyl ester salt that has undergone perhydrolysis in a specified period of time and at a specific temperature. For the purposes of these examples, perhydrolysis rate is measured at 5 and 30 minutes intervals at 10° C.
The perhydrolysis rate of a phenyl ester salt is measured by adding a weighed quantity of formulated beads comprising the phenyl ester salt, a reference detergent, and sodium […] monohydrate to a synthetic hard water solution in a chilled dissolution vessel (Sotax Model AT7, modified with a emersion chiller). The solution is maintained at 10° C. and stirred at 150 rpm. […]

[2] = Hydrolysis of phenyl ester salt in water at elevated temperature (water crystallization); assay type: physicochemical
Excerpt: Phenyl ester salts may also be recrystallized from aqueous solutions. At first glance, the use of water (or an alcohol) as a solvent to replace acetic acid typically used for the purification of crude phenyl ester salts is not an obvious choice. Japanese Patent No. 6-306,042 (1995), for example, reports that compounds related to phenyl ester salts in water or alcohol are subject to hydrolysis or solvolysis at elevated temperatures. Indeed, initial work on water crystallization confirmed that phenyl ester salts, such as Compound (1), did undergo hydrolysis at elevated temperatures. Typical losses of Compound (1) were in the range of 5-7.5% at 90° C.

Hydrolysis ([2]; 90° C., operating at a pH range of 4-6): about 2.2%
Typical losses by hydrolysis ([2]; water crystallization at 90° C., pH not controlled): 5-7.5%
Substance: sodium nonanamidohexanoyloxybenzenesulfonate [Compound (1)]
Five minute perhydrolysis rate ([1]; beads prepared from crystallized Compound (1)): 20%
Five minute perhydrolysis rate ([1]; beads prepared from spray-dried Compound (1)): 100%
